# Test results taken from ChEMBL document CHEMBL4118022, “Unguiculin A and Ptilomycalins E-H, Antimalarial Guanidine Alkaloids from the Marine Sponge Monanchora unguiculata” (J Nat Prod, 2017).
# Columns and labels:
# [1] = Selectivity index, ratio of IC50 for human KB cells to IC50 for Plasmodium falciparum 3D7 erythrocytic stage; assay type: toxicity; conditions: KB cells versus Plasmodium falciparum 3D7 erythrocytic stage, read-out: Ratio IC50
# KB = experiment: Cytotoxicity against human KB cells after 72 hrs by CellTiter96 AQueous one solution assay; assay type: cell-based
# Plasmodium falciparum = experiment: Antiplasmodial activity against Plasmodium falciparum 3D7 erythrocytic stage assessed as reduction in parasitic LDH activity measured after 48 hrs by colorimetric method; assay type: functional, organism-based; conditions: 3D7, 48 h
compound,measurement,setting,value
CC[C@@H]1C=CCC[C@]2(C[C@H]3CC[C@H]4[C@@H](C(=O)OCCCCCCCCCCCCCCCC5=NCCCN5CC(O)CCN)[C@@]5(CCC[C@H](C)O5)NC(=N2)N34)O1 (some centres undefined),selectivity ratio,[1],4.9
same,IC50,KB,1170 nM
same,IC50,Plasmodium falciparum,240 nM
CCCCCCCCCCCCCCCC(=O)N(CCCCNC(=N)N)CCCNC(=N)N,selectivity ratio,[1],0.6
same,IC50,KB,7660 nM
same,IC50,Plasmodium falciparum,12900 nM
C[C@@H]1CC[C@H]2[C@@H](C)C(=O)O[C@@H]3O[C@@]4(C)CC[C@@H]1[C@]32OO4 [ARTEMISININ],IC50,Plasmodium falciparum,4 nM
CC[C@@H]1C=CCC[C@]2(C[C@H]3CC[C@H]4[C@@H](C(=O)OCCCCCCCCCCCCCCCC(=O)O)[C@@]5(CCC[C@H](C)O5)NC(=N2)N34)O1,IC50,KB,8800 nM
CC[C@@H]1C=CCC[C@]2(C[C@H]3CC[C@H]4[C@@H](C(=O)OCCCCCCCCCCCCCCCC(=O)N(CCCCNC(=N)N)CCCNC=O)[C@@]5(CCC[C@H](C)O5)NC(=N2)N34)O1,selectivity ratio,[1],7
same,IC50,KB,1610 nM
same,IC50,Plasmodium falciparum,230 nM
CC[C@@H]1C=CCC[C@]2(C[C@H]3CC[C@H]4[C@@H](C(=O)OCCCCCCCCCCCCCCCC(=O)N(CCCCNC(=N)N)CCCNC(=N)N)[C@@]5(CCC[C@H](C)O5)NC(=N2)N34)O1,selectivity ratio,[1],2.4
same,IC50,KB,850 nM
same,IC50,Plasmodium falciparum,350 nM
